Numbers after ± are expanded uncertainties.
Conditions: 100 kPa, Liquid, capillary rise

In the case of CCCCCC [hexane] + O, the interfacial tension (298.15 K) is reported as 50 ± 0.6 mN/m, the interfacial tension (302.15 K) is reported as 49.7 ± 0.6 mN/m and the interfacial tension (315.65 K) is reported as 48.5 ± 0.6 mN/m. The interfacial tension (322.15 K) was 47.9 ± 0.6 mN/m, the interfacial tension (333.15 K) was 47 ± 0.4 mN/m and the interfacial tension (343.15 K) was 46.2 ± 0.4 mN/m.

With CCCCCCC [heptane] + O the interfacial tension (298.15 K) was 50.6 ± 0.6 mN/m, the interfacial tension (304.15 K) was 50.1 ± 0.6 mN/m and the interfacial tension (314.15 K) was 49.3 ± 0.6 mN/m. For the same compound, the interfacial tension (324.65 K) was 48.4 ± 0.4 mN/m and the interfacial tension (335.65 K) was 47.4 ± 0.4 mN/m.

CCCCCC(=O)O [hexanoic acid] + O showed an interfacial tension (304.65 K) of 5.57 ± 0.09 mN/m, an interfacial tension (313.65 K) of 5.19 ± 0.08 mN/m and an interfacial tension (324.15 K) of 4.62 ± 0.08 mN/m. The interfacial tension (333.15 K) was 4.11 ± 0.09 mN/m and the interfacial tension (343.15 K) was 3.48 ± 0.08 mN/m.

For CCCCCCCO [heptan-1-ol] + O, the interfacial tension (302.15 K) was 7.28 ± 0.08 mN/m, the interfacial tension (313.15 K) was 7.47 ± 0.08 mN/m and the interfacial tension (323.15 K) was 7.61 ± 0.08 mN/m. It also gave an interfacial tension (333.15 K) of 7.64 ± 0.08 mN/m and an interfacial tension (343.15 K) of 7.59 ± 0.08 mN/m.

For CCCCCCCC [octane] + O, the interfacial tension (312.65 K) was 50.5 ± 0.6 mN/m, the interfacial tension (323.65 K) was 49.7 ± 0.6 mN/m and the interfacial tension (330.65 K) was 48.8 ± 0.6 mN/m. It also gave an interfacial tension (333.15 K) of 48 ± 0.4 mN/m and an interfacial tension (343.15 K) of 47.1 ± 0.4 mN/m.

For CCCCCCCCC [nonane] + O, the interfacial tension (303.15 K) was 50.9 ± 0.6 mN/m, the interfacial tension (313.15 K) was 50 ± 0.6 mN/m and the interfacial tension (324.15 K) was 49.2 ± 0.6 mN/m. It also gave an interfacial tension (333.65 K) of 48.4 ± 0.4 mN/m and an interfacial tension (343.15 K) of 47.6 ± 0.4 mN/m.
